Source: patent US20030049317A1, “Method and composition for reducing the danger and preventing the abuse of controlled release pharmaceutical formulations” (priority 2001, published 2003)
Where two headings read alike, the source gives them in different places.

How the values were obtained:
[1] = type: in vivo; conditions: in comparison to a 15 mg dose of hydrocodone
[2] = test system: morphine-like opioid agonist effects; conditions: cited from earlier work; for action of the naloxone amount in Talwin Nx: naloxone hydrochloride equivalent to 0.5 mg base

Row | Compound | Equianalgesic dose, Calculated Dose [1] [mg] | onset of effects ([2]; after intravenous administration) | action of the naloxone amount in Talwin Nx ([2]; given by injection) | action of the naloxone amount in Talwin Nx ([2]; taken orally) | block of heroin effects ([2]; one mg intravenously versus 25 mg of heroin) | effect on morphine-like opioid agonist effects ([2]; small doses (0.4-0.8 mg) intramuscularly or intravenously in humans)
1 | COc1ccc2c3c1O[C@H]1C(=O)CC[C@H]4[C@@H](C2)N(C)CC[C@]314 [Hydrocodone] | 15.0 | – | – | – | – | –
2 | C=CCN1CC[C@]23c4c5ccc(O)c4O[C@H]2C(=O)CC[C@@]3(O)[C@H]1C5 [naloxone] | – | almost immediately | profound antagonistic action to narcotic analgesics | no action when taken orally | completely block the effects of 25 mg of heroin | prevents or promptly reverses the effects of morphine-like opioid agonist
